The text below walks through data of ChEMBL document CHEMBL4007467, “Effects of 6-paradol, an unsaturated ketone from gingers, on cytochrome P450-mediated drug metabolism” (Bioorg Med Chem Lett, 2017).

Each structure is given as a SMILES string.

For orientation: IC50 means the midpoint of a concentration-inhibition curve.

Assay type in all cases: ADME
Series [1] concerns the target T1, CYP2D6 (Homo sapiens, UniProt P10635). Nature of the series: Inhibition of CYP2D6 in human liver microsomes assessed as enzyme-mediated metabolite formation at 0.3 uM using dextromethorphan as substrate preincubated for 20 mins followed by substrate addition measured after 30 mins in presence of NADPH by LC-MS/MS analysis relative to control. The settings on record: probe dextromethorphan, read-out: Activity. Details: scale not given: the % may be the effect or the level left. For orientation: Microsomes from liver hold many membrane-bound enzymes, among them those of drug oxidation.

The target of series [2] is T2, CYP2C19 (Homo sapiens, UniProt P33261). The series can be described thus: Inhibition of CYP2C19 in human liver microsomes assessed as enzyme-mediated metabolite formation at 3 uM using (S)-mephenytoin as substrate preincubated for 20 mins followed by substrate addition measured after 30 mins in presence of NADPH by LC-MS/MS analysis relative to control. More on the design: scale not given: the % may be the effect or the level left. The settings on record: probe (S)-mephenytoin, read-out: Activity.

Series [3] has as its target T1, CYP2D6. The series can be described thus: Inhibition of CYP2D6 in human liver microsomes assessed as enzyme-mediated metabolite formation at 0.1 uM using dextromethorphan as substrate incubated for 5 mins followed by NADPH addition measured after 30 mins by LC-MS/MS analysis relative to control. Details: scale not given: the % may be the effect or the level left. To be noted: probe dextromethorphan, read-out: Activity.

The target of series [4] is T3, CYP3A4 (Homo sapiens, UniProt P08684). Nature of the series: Inhibition of CYP3A4 in human liver microsomes assessed as enzyme-mediated metabolite formation at 0.3 uM using testosterone as substrate preincubated for 20 mins followed by substrate addition measured after 30 mins in presence of NADPH by LC-MS/MS analysis relative to control. More on the design: scale not given: the % may be the effect or the level left. To be noted: probe testosterone, read-out: Activity.

Series [5] addresses T4, CYP2C9 (Homo sapiens, UniProt P11712). The series can be described thus: Inhibition of CYP2C9 in human liver microsomes assessed as enzyme-mediated metabolite formation at 10 uM using diclofenac as substrate incubated for 5 mins followed by NADPH addition measured after 30 mins by LC-MS/MS analysis relative to control. Details: scale not given: the % may be the effect or the level left. The settings on record: probe diclofenac, read-out: Activity.

For series [6], the target named is T4, CYP2C9. Nature of the series: Inhibition of CYP2C9 in human liver microsomes assessed as enzyme-mediated metabolite formation at 0.3 uM using diclofenac as substrate incubated for 5 mins followed by NADPH addition measured after 30 mins by LC-MS/MS analysis relative to control. The settings on record: probe diclofenac, read-out: Activity. More on the design: scale not given: the % may be the effect or the level left.

The next series has as its target T5, Cytochrome P450 2A6 (Homo sapiens, UniProt P11509).
T5 sequence (P11509 whole entry): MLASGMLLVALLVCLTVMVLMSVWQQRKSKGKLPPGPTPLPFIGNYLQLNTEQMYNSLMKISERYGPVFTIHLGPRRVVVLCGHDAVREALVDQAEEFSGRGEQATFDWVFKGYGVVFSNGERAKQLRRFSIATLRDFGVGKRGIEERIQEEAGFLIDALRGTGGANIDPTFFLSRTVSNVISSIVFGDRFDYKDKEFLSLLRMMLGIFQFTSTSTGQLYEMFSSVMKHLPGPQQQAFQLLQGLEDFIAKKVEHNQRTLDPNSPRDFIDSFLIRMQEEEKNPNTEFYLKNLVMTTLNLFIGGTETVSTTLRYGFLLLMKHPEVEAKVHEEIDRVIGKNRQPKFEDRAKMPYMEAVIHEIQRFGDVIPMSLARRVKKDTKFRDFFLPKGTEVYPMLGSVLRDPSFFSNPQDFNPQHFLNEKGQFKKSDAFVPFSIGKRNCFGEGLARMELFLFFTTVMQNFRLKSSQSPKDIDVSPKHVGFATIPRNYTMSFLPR
Nature of the series: Inhibition of CYP2A6 in human liver microsomes assessed as enzyme-mediated metabolite formation using coumarin as substrate incubated for 5 mins followed by NADPH addition measured after 30 mins by LC-MS/MS analysis.

Series [7] addresses T2, CYP2C19. The series can be described thus: Inhibition of CYP2C19 in human liver microsomes assessed as enzyme-mediated metabolite formation at 1 uM using (S)-mephenytoin as substrate preincubated for 20 mins followed by substrate addition measured after 30 mins in presence of NADPH by LC-MS/MS analysis relative to control. Details: scale not given: the % may be the effect or the level left. The settings on record: probe (S)-mephenytoin, read-out: Activity.

For series [8], the target named is T3, CYP3A4. Nature of the series: Inhibition of CYP3A4 in human liver microsomes assessed as enzyme-mediated metabolite formation at 0.1 uM using midazolam as substrate incubated for 5 mins followed by NADPH addition measured after 30 mins by LC-MS/MS analysis relative to control. Details: scale not given: the % may be the effect or the level left. To be noted: probe midazolam, read-out: Activity.

In series [9] the target is T3, CYP3A4. Nature of the series: Inhibition of CYP3A4 in human liver microsomes assessed as enzyme-mediated metabolite formation at 30 uM using testosterone as substrate preincubated for 20 mins followed by substrate addition measured after 30 mins in presence of NADPH by LC-MS/MS analysis relative to control. More on the design: scale not given: the % may be the effect or the level left. The settings on record: probe testosterone, read-out: Activity.

The target in the next series is T6, CYP2A6 (Homo sapiens, UniProt P11509).
T6 sequence (P11509 whole entry): T5 sequence (P11509 whole entry)
Nature of the series: Inhibition of CYP2A6 in human liver microsomes assessed as enzyme-mediated metabolite formation at 0.1 uM using coumarin as substrate preincubated for 20 mins followed by substrate addition measured after 30 mins in presence of NADPH by LC-MS/MS analysis relative to control. Details: scale not given: the % may be the effect or the level left. To be noted: probe coumarin, read-out: Activity.

The next series concerns the target T7, Cytochrome P450 2C8 (Homo sapiens, UniProt P10632).
T7 sequence (P10632 whole entry): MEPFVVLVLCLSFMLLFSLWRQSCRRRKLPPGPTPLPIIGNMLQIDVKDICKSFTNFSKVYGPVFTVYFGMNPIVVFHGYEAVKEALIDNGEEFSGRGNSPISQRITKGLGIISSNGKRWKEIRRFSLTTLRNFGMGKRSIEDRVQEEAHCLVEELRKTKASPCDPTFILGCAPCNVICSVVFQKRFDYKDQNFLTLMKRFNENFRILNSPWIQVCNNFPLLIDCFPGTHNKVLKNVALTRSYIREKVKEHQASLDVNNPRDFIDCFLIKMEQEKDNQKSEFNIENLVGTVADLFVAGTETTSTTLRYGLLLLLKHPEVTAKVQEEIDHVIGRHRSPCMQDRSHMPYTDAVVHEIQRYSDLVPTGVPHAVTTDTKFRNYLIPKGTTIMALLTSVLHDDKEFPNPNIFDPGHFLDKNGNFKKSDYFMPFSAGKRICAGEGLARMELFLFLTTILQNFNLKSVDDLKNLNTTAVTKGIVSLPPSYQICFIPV
Nature of the series: Inhibition of human CYP2C8 using paclitaxel as substrate incubated for 5 mins followed by NADPH addition measured after 30 mins by LC-MS/MS analysis.

In another series the target is T8, CYP2C8 (Homo sapiens, UniProt P10632).
T8 sequence (P10632 whole entry): T7 sequence (P10632 whole entry)
Nature of the series: Inhibition of CYP2C8 in human liver microsomes assessed as enzyme-mediated metabolite formation at 1 uM using paclitaxel as substrate incubated for 5 mins followed by NADPH addition measured after 30 mins by LC-MS/MS analysis relative to control. Details: scale not given: the % may be the effect or the level left. The settings on record: probe paclitaxel, read-out: Activity.

T3 sequence (P08684 whole entry): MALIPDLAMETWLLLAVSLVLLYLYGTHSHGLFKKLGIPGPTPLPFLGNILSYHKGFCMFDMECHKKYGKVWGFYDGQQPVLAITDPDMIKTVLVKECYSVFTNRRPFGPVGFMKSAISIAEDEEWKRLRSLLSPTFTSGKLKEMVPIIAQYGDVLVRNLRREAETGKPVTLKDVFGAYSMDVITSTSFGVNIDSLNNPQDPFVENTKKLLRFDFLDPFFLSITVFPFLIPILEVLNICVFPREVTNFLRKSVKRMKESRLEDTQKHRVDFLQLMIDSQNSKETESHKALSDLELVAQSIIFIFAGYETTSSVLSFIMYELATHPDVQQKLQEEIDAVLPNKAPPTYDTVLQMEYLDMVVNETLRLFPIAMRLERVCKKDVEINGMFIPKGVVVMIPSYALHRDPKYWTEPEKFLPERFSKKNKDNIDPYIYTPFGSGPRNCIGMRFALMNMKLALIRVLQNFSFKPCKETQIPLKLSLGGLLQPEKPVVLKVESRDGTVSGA
T1 sequence (P10635 whole entry): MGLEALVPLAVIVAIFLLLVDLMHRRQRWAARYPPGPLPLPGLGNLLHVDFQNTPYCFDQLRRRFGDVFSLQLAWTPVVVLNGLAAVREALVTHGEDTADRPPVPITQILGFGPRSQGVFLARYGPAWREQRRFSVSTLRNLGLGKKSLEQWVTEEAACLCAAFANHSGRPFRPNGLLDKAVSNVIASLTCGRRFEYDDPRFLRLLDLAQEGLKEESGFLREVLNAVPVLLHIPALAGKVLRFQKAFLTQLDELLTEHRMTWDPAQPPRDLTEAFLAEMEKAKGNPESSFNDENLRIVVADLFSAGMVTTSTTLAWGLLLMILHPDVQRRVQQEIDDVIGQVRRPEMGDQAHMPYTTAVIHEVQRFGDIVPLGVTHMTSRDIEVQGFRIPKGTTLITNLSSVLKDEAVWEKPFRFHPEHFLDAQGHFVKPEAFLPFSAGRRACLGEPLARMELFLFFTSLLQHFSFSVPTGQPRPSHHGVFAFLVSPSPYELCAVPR
T4 sequence (P11712 whole entry): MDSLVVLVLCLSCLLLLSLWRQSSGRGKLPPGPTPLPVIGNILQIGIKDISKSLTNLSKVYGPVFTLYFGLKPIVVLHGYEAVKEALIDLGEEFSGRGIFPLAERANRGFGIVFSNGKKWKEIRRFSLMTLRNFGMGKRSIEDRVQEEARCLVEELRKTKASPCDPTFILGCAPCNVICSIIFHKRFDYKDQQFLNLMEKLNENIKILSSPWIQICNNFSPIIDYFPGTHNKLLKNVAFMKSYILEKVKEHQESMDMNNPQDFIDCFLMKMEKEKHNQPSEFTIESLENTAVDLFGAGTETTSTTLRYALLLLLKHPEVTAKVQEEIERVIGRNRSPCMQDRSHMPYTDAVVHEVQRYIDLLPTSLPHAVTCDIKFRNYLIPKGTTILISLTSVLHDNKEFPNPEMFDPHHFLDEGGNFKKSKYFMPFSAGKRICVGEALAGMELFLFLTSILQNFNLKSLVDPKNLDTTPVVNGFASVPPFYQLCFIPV
T2 sequence (P33261 whole entry): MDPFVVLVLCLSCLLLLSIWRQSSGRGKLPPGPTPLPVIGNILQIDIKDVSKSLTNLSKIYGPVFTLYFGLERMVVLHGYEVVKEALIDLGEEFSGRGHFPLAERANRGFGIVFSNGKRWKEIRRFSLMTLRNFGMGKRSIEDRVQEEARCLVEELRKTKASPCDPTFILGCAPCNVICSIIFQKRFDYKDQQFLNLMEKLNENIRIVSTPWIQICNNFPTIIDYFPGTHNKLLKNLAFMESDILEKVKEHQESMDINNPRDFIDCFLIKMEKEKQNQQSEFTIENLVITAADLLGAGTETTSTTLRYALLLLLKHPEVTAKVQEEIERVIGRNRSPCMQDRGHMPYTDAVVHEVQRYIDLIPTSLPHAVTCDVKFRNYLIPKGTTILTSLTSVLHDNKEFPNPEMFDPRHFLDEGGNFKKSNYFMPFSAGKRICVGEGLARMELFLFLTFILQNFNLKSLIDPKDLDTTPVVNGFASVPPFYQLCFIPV

Consider `CCCCCCCC(=O)CCc1ccc(O)c(OC)c1`, for which the values for the activity at 0.5 h, 0.3 µM on CYP2D6 [1], on CYP3A4 [4] and on CYP2C9 [6] were 87%, 87.4% and 93.6%, respectively. Besides, the activity at 0.5 h, 3 µM on CYP2C19 [2] was 67.6%. The activity at 0.5 h, 0.1 µM at CYP2D6 [3] turned out to be 112%; on CYP3A4 [8], 109%; at CYP2A6, 96.5%. For the same compound, the activity at 0.5 h, 10 µM on CYP2C9 [5] is 52.3%. In addition, the IC50 at Cytochrome P450 2A6 was greater than 30 µM; against Cytochrome P450 2C8, 3.8 µM. For the same compound, the activity at 0.5 h, 1 µM is 72.1% at CYP2C19 [7] and 68.7% at CYP2C8. For the same compound, the activity at 0.5 h, 30 µM at CYP3A4 [9] came out at 62.3%. Besides, the “inhibition (INH)” value against Cytochrome P450 2C8 (human, 0.5 h) is “Dose-dependent effect”.
